Results published in ChEMBL document CHEMBL1201862, “PubChem BioAssay data set” (2004).
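Results reflect a 48-hour exposure of cells in 96-well plates to compound at five concentrations. GI50 marks 50% less growth.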 Activity calls are given as the source filed them. No stated cut-off is given here; in the data, active = GI50 up to about 1.1 µM and inactive = higher.

Columns and labels:
Experiment in all cases: DTP human tumour cell line panel, 48 h
[1] = tested on: A498
[2] = tested on: A549
[3] = tested on: K562
[4] = tested on: KM12
[5] = tested on: M14
[6] = tested on: Malme-3M
[7] = tested on: NCI-H460
[8] = tested on: SF-268
[9] = tested on: SF-539
[10] = tested on: SK-MEL-2
[11] = tested on: SK-OV-3
[12] = tested on: SNB-75
[13] = tested on: TK-10
[14] = tested on: U-251
[15] = tested on: UACC-257
[16] = tested on: UO-31

Measured: GI50

C/C=C/C=C/[C@H]1Cc2cc(O)cc(O)c2O1
inactive: [1] > 100 µM | [2] 70 µM | [3] 37.2 µM | [4] 61 µM | [5] 37.3 µM | [6] 52.5 µM | [7] 44.1 µM | [8] > 100 µM | [9] > 100 µM | [10] > 100 µM | [11] > 100 µM | [12] > 100 µM | [13] > 100 µM | [14] 59.2 µM | [15] 28.4 µM | [16] 29.4 µM

O=C1c2ccccc2C(=O)c2c(NCCNCCO)ccc(O)c21
inactive: [1] 5.53 µM | [2] 2.45 µM | [3] 4.86 µM | [4] 2.52 µM | [5] 3.23 µM | [6] 3.18 µM | [7] 1.44 µM | [8] 2.14 µM | [9] 2.9 µM | [10] 3.54 µM | [11] 2.55 µM | [12] 3.63 µM | [13] 4.65 µM | [14] 3.48 µM | [15] 3.29 µM | [16] 1.49 µM

O=C(C#Cc1cnc(O)nc1O)c1ccccc1
inactive: [1] 15.5 µM | [2] 24.7 µM | [3] 2.98 µM | [4] 15.2 µM | [5] 5.2 µM | [6] 3.34 µM | [7] 14.1 µM | [8] 13.6 µM | [9] 4.04 µM | [10] 12.1 µM | [11] 27.3 µM | [12] 18.2 µM | [13] 13.8 µM | [14] 13.9 µM | [15] 11.5 µM | [16] 17.4 µM

O=C1C/C(=C/c2ccc(/C=C3/CC(=O)N(c4cccc(Br)c4)C3=O)cc2)C(=O)N1c1cccc(Br)c1
inactive: [1] > 71 µM | [2] > 100 µM | [3] > 67 µM | [4] > 100 µM | [5] > 100 µM | [6] > 100 µM | [7] > 100 µM | [8] > 100 µM | [9] 51.5 µM | [10] > 100 µM | [11] > 100 µM | [12] 23.5 µM | [13] > 100 µM | [14] > 81.7 µM | [15] > 100 µM | [16] > 100 µM

O=C(/C=C/c1ccccc1)c1ccc(NCc2nc3ccccc3[nH]2)cc1
inactive: [1] 5.24 µM | [2] 4.35 µM | [3] 2.51 µM | [4] 1.95 µM | [5] 9.02 µM | [6] 13.3 µM | [7] 3.27 µM | [8] 6.44 µM | [9] 2.17 µM | [10] 12.7 µM | [11] 6.37 µM | [12] 4.61 µM | [13] 11.7 µM | [14] 1.91 µM | [15] 3.73 µM | [16] 7.21 µM
